Four compounds from patent US7358057B2, “QM-7 and QT-6 cells transfected with mutant cell surface expressed channel receptors and assays using the transfected cells” (Memory Pharmaceuticals Corporation, priority 2002, dated 2008) can be followed below.

In one assay the target is T1, L270T mutant α7 receptor (Homo sapiens, UniProt P36544, L270T).
T1 construct: expressed in transfected cells; host or cells: QM-7 cells (quail), transient transfection with Lipofectamine PLUS
Kind of assay: Real time, high throughput Ca++ imaging assay using FLIPR, QM-7 cells transiently transfected with L270T mutant α7. It counts as cell-based. The protocol:
(§1) QM-7 cells were transiently transfected with either wild type or L 270T mutant α7 receptor with Lipofectamine PLUS reagent (Invitrogen), in 175 cm^2 flasks. Twenty four hours after the transfection, the cells were collected and re-seeded into a 96-well plate at a density of 40,000 cells/well. Twenty four hours after re-seeding, the cell were incubated with Ca^++ sensitive dye Fluo 3, washed and stimulated with the selective alpha 7 agonist GTS-21. Cellular Ca^++ signal was detected with FLIPR, quantified and plotted against the concentration of GTS-21.

The next assay addresses T2, wild type α7 receptor (Homo sapiens, UniProt P36544).
T2 construct: expressed in transfected cells; host or cells: QM-7 cells (quail), transient transfection with Lipofectamine PLUS
Put plainly: Real time, high throughput Ca++ imaging assay using FLIPR, QM-7 cells transiently transfected with wild type α7. It counts as cell-based. The conditions noted are these: QM-7 cells transiently transfected with wild type human α7, Fluo 3 dye, FIG. 1. The protocol:
as §1

The mark [1] stands for this setting: QM-7 cells transiently transfected with human L270T α7, Fluo 3 dye, FLIPR, FIG. 1.

Read-outs that look alike come from different tables or passages of the source.

T1 sequence (P36544 23-502 L270T): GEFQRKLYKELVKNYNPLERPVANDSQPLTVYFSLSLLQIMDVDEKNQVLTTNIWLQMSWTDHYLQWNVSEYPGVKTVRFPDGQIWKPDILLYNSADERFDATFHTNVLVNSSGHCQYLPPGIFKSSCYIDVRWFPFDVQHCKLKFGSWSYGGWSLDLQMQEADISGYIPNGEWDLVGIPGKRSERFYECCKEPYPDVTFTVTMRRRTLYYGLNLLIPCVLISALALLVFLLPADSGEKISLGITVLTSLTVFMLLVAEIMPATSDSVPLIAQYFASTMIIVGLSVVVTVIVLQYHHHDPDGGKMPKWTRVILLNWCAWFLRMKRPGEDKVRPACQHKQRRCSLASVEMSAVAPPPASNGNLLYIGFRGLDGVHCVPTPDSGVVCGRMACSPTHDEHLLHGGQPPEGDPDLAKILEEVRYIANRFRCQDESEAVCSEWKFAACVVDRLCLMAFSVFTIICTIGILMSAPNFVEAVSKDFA
T2 sequence (P36544 23-502): as the sequence (P36544 23-502 L270T) above, with T248L counted along it

As to `COc1ccc(/C=C2\CCCN=C2c2cccnc2)c(OC)c1` [GTS-21], the entries for the “Cellular Ca++ signal on stimulation” value at L270T mutant α7 receptor (setting [1]) and at wild type α7 receptor were “dose-dependent increase of Ca^++ signal” and “failed to give a meaningful signal”, respectively. Also, the “Concentration at which the Ca++ signal saturated” value at L270T mutant α7 receptor (setting [1]) amounted to 10 µM.
Take `CCN1C[C@]2(COC(=O)c3ccccc3N3C(=O)C[C@H](C)C3=O)CC[C@H](OC)[C@@]34[C@@H]5C[C@H]6[C@H](OC)[C@@H]5[C@](O)(C[C@@H]6OC)[C@@](O)([C@@H](OC)[C@H]23)[C@@H]14` [MLA, Methyllycaconitine]: the “Attenuation of signals from epibatidine stimulation” value at L270T mutant α7 receptor is recorded as “attenuated”.
Take `Clc1ccc(C2CC3CCC2N3)cn1` (stereo not drawn) [epibatidine]: the “Responsiveness of cells to agonist (Ca++ signal)” value on L270T mutant α7 receptor (QM-7 cells transiently transfected with the mutant) is given as “responsive”.
As for `CN1CCCC1c1cccnc1` (stereo not drawn) [nicotine], at L270T mutant α7 receptor, the “Responsiveness of cells to agonist (Ca++ signal)” value was “responsive”.
